From patent US12435092B2, “Substituted imidazo[1,2-A]quinazolines as inhibitors of PARG” (858 Therapeutics, Inc., priority 2022, dated 2025)

Biological target: T1, cellular PARG (Homo sapiens, UniProt Q86W56)
T1 construct: endogenous in cells; host or cells: HeLa
Assay: Nuclear PAR accumulation assay (immunofluorescence high-content imaging)
Type: cell-based
Conditions: HeLa cells, 1 hour compound treatment then MMS 50 μg/mL for an additional hour
In short: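 HeLa cells pretreated 1 h at 37 °C with compound, then 1 h with 50 μg/mL MMS (final), methanol-fixed and immunostained for PAR with DAPI nuclear counterstain. Nuclear PAR intensity and percent PAR-positive cells quantified by high-content imaging (≥1,000 cells/well). IC50 by four-parameter logistic fit, normalized to 0.1% DMSO and reference-compound controls.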

T1 sequence (Q86W56 whole entry): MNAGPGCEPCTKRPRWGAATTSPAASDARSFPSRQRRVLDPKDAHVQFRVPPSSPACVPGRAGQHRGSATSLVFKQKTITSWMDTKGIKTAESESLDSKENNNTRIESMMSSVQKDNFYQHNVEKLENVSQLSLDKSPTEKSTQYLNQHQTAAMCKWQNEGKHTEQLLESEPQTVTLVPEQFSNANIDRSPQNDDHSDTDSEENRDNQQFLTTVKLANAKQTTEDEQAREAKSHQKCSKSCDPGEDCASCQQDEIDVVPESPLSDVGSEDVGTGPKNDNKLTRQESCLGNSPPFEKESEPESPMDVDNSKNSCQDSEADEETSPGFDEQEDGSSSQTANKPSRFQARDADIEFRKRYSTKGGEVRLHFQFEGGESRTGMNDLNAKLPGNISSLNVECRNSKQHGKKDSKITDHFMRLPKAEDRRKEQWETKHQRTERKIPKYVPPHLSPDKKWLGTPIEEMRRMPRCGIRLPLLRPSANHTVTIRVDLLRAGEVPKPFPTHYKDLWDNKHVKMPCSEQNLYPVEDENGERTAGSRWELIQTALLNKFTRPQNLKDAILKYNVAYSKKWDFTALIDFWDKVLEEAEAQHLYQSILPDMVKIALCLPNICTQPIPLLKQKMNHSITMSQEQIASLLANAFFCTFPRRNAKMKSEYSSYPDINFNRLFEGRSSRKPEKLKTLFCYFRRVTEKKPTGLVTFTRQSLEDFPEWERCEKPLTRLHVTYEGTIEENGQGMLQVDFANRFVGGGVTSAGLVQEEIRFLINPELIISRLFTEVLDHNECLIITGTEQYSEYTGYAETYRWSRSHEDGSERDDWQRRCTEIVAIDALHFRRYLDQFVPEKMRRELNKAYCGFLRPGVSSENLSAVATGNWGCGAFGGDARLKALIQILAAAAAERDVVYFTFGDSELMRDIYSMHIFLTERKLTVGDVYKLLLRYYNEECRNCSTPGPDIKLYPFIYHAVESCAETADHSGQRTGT

SMILES	IC50 [µM]
Cn1cc(CN2C(=O)c3cc(S(=O)(=O)NC4(C)CC4)ccc3N3C2=NC[C@@H]3C#CC2CC2)cn1 [Example 84, (S)-1-(cyclopropylethynyl)-4-((1-methyl-1H-pyrazol-4-yl)methyl)-N-(1-methylcyclopropyl)-5-oxo-1,2,4,5-tetrahydroimidazo[1,2-a]quinazoline-7-sulfonamide]	1 to 10
[2H]C([2H])(c1cnn(C)c1)N1C(=O)c2cc(S(=O)(=O)NC3(C)CC3)ccc2N2C1=N[C@H]1CCC[C@H]12 [Example 85, (7aS,10aR)-6-(dideutero(1-methyl-1H-pyrazol-4-yl)methyl)-N-(1-methylcyclopropyl)-5-oxo-6,7a,8,9,10,10a-hexahydro-5H-cyclopenta[4,5]imidazo[1,2-a]quinazoline-3-sulfonamide]	≤ 0.1
[2H]C([2H])(c1cnn(C)c1)N1C(=O)c2cc(S(=O)(=O)NC3(C)CC3)c(F)cc2N2C1=NC[C@H]2C [Example 86, (R)-4-(dideutero(1-methyl-1H-pyrazol-4-yl)methyl)-8-fluoro-1-methyl-N-(1-methylcyclopropyl)-5-oxo-1,2,4,5-tetrahydroimidazo[1,2-a]quinazoline-7-sulfonamide]	≤ 0.1
[2H]C([2H])(c1cnn(C)c1)N1C(=O)c2cc(S(=O)(=O)NC3(C)CC3)ccc2N2C1=NC[C@H]2C(F)(F)F [Example 87, (S)-4-(dideutero(1-methyl-1H-pyrazol-4-yl)methyl)-N-(1-methylcyclopropyl)-5-oxo-1-(trifluoromethyl)-1,2,4,5-tetrahydroimidazo[1,2-a]quinazoline-7-sulfonamide]	≤ 0.1
[2H]C([2H])(c1cnn(C)c1)N1C(=O)c2cc(S(=O)(=O)NC3(C#N)CC3)ccc2N2C1=N[C@H]1CCC[C@H]12 [Example 88, (7aS,10aR)-N-(1-cyanocyclopropyl)-6-(dideutero(1-methyl-1H-pyrazol-4-yl)methyl)-5-oxo-6,7a,8,9,10,10a-hexahydro-5H-cyclopenta[4,5]imidazo[1,2-a]quinazoline-3-sulfonamide]	≤ 0.1
[2H]C([2H])(c1sc(C)nc1C)N1C(=O)c2cc(S(=O)(=O)NC3(C)CC3)ccc2N2C1=NC[C@H]2C [Example 89, (R)-4-(dideutero(2,4-dimethylthiazol-5-yl)methyl)-1-methyl-N-(1-methylcyclopropyl)-5-oxo-1,2,4,5-tetrahydroimidazo[1,2-a]quinazoline-7-sulfonamide]	≤ 0.1
C[C@@H]1CN=C2N(Cc3cn(C)nn3)C(=O)c3cc(S(=O)(=O)NC4(C)CC4)ccc3N21 [Example 90, (R)-1-methyl-4-((1-methyl-1H-1,2,3-triazol-4-yl)methyl)-N-(1-methylcyclopropyl)-5-oxo-1,2,4,5-tetrahydroimidazo[1,2-a]quinazoline-7-sulfonamide]	0.1 to 1
[2H]C([2H])(c1cnn(C)c1)N1C(=O)c2cc(S(=O)(=O)NC3(C)CC3)ccc2N2C1=NC[C@@H]2C [Example 91, (S)-4-(dideutero(1-methyl-1H-pyrazol-4-yl)methyl)-1-methyl-N-(1-methylcyclopropyl)-5-oxo-1,2,4,5-tetrahydroimidazo[1,2-a]quinazoline-7-sulfonamide]	0.1 to 1
[2H]C([2H])(c1cnn(C)c1)N1C(=O)c2cc(S(=O)(=O)NC3(C)CC3)cc(OC)c2N2C1=NC[C@H]2C [Example 92, (R)-4-(dideutero(1-methyl-1H-pyrazol-4-yl)methyl)-9-methoxy-1-methyl-N-(1-methylcyclopropyl)-5-oxo-1,2,4,5-tetrahydroimidazo[1,2-a]quinazoline-7-sulfonamide]	0.1 to 1
Cn1cc(CN2C(=O)c3cc(S(=O)(=O)NC4(C)CC4)ccc3N3C2=N[C@H]2COC[C@H]23)cn1 [Example 93, (7aR,10aS)-6-((1-methyl-1H-pyrazol-4-yl)methyl)-N-(1-methylcyclopropyl)-5-oxo-5,6,7a,8,10,10a-hexahydrofuro[3′,4′:4,5]imidazo[1,2-a]quinazoline-3-sulfonamide]	≤ 0.1
Cc1nc(C)c(CN2C(=O)c3cc(S(=O)(=O)NC4CC4)ccc3N3C2=NC[C@H]3C)s1 [Example 94, (R)-N-cyclopropyl-4-((2,4-dimethylthiazol-5-yl)methyl)-1-methyl-5-oxo-1,2,4,5-tetrahydroimidazo[1,2-a]quinazoline-7-sulfonamide]	≤ 0.1
CN(C)C[C@@H]1CN=C2N(Cc3cnn(C)c3)C(=O)c3cc(S(=O)(=O)NC4(C)CC4)ccc3N21 [Example 95, (R)-1-((dimethylamino)methyl)-4-((1-methyl-1H-pyrazol-4-yl)methyl)-N-(1-methylcyclopropyl)-5-oxo-1,2,4,5-tetrahydroimidazo[1,2-a]quinazoline-7-sulfonamide]	≤ 0.1
CN(C)C[C@H]1CN=C2N(Cc3cnn(C)c3)C(=O)c3cc(S(=O)(=O)NC4(C)CC4)ccc3N21 [Example 96, (S)-1-((dimethylamino)methyl)-4-((1-methyl-1H-pyrazol-4-yl)methyl)-N-(1-methylcyclopropyl)-5-oxo-1,2,4,5-tetrahydroimidazo[1,2-a]quinazoline-7-sulfonamide]	1 to 10
Cn1cc(CN2C(=O)c3cc(S(=O)(=O)NC4(C)CC4)ccc3N3C2=NC[C@H]3CN)cn1 [Example 97, (R)-1-(aminomethyl)-4-((1-methyl-1H-pyrazol-4-yl)methyl)-N-(1-methylcyclopropyl)-5-oxo-1,2,4,5-tetrahydroimidazo[1,2-a]quinazoline-7-sulfonamide]	0.1 to 1
[2H]C([2H])(c1sc(C)nc1C)N1C(=O)c2cc(S(=O)(=O)NC3(C)CC3)ccc2N2C1=N[C@H]1COC[C@H]12 [Example 98, (7aR,10aS)-6-(dideutero(2,4-dimethylthiazol-5-yl)methyl)-N-(1-methylcyclopropyl)-5-oxo-5,6,7a,8,10,10a-hexahydrofuro[3′,4′:4,5]imidazo[1,2-a]quinazoline-3-sulfonamide]	≤ 0.1
CNC[C@@H]1CN=C2N(Cc3cnn(C)c3)C(=O)c3cc(S(=O)(=O)NC4(C)CC4)ccc3N21 [Example 99, (R)-4-((1-methyl-1H-pyrazol-4-yl)methyl)-1-((methylamino)methyl)-N-(1-methylcyclopropyl)-5-oxo-1,2,4,5-tetrahydroimidazo[1,2-a]quinazoline-7-sulfonamide]	0.1 to 1
Cn1cc(CN2C(=O)c3cc(S(=O)(=O)NC4(C)CC4)ccc3N3CC4(CC4)N=C23)cn1 [Example 100, 4′-((1-methyl-1H-pyrazol-4-yl)methyl)-N-(1-methylcyclopropyl)-5′-oxo-4′,5′-dihydro-1′H-spiro[cyclopropane-1,2′-imidazo[1,2-a]quinazoline]-7′-sulfonamide]	≤ 0.1
Cn1cc(CN2C(=O)c3cc(S(=O)(=O)NC4(C)CC4)ccc3N3CC4(CCC4)N=C23)cn1 [Example 101, 4′-((1-methyl-1H-pyrazol-4-yl)methyl)-N-(1-methylcyclopropyl)-5′-oxo-4′,5′-dihydro-1′H-spiro[cyclobutane-1,2′-imidazo[1,2-a]quinazoline]-7′-sulfonamide]	≤ 0.1
Cn1cc(CN2C(=O)c3cc(S(=O)(=O)NC4(C)CC4)ccc3N3CC4(CC(F)(F)C4)N=C23)cn1 [Example 102, 3,3-difluoro-4′-((1-methyl-1H-pyrazol-4-yl)methyl)-N-(1-methylcyclopropyl)-5′-oxo-4′,5′-dihydro-1′H-spiro[cyclobutane-1,2′-imidazo[1,2-a]quinazoline]-7′-sulfonamide]	≤ 0.1
